Reference: patent US20200323780A1, “BILAYER COMBINATION TABLET FOR ORAL ADMINISTRATION CONTAINING TRAMADOL AND CELECOXIB” (KIMS HEALTHCARE CO., LTD., priority 2017, published 2020)
Values after ≈ are worked out from the molar mass of the structure shown. Like-named read-outs stand apart in the source and are kept apart here.

Key:
[1] = cited from earlier work
[2] = cited from earlier work; remark: listed apart in the source
[3] = test system: conditioned place preference; assay: Psychological dependence on tramadol by change in conditioned place preference (CPP); format: in vivo, Sprague-Dawley rats; details: rats; for Change (min) in the time stayed in non-preferred compartment / Change (min) in the time stayed in preferred compartment: post- vs pre-conditioning, 15 minutes
Procedure: 3. Test for Measuring Psychological Dependence on Tramadol by Assessment of Dependence Potential
In order to measure psychological dependence which is one of the side effects of tramadol, a change in conditioned place preference (CPP) was measured. Conditioned place preference boxes are divided into three boxes, that is, a white box, a black box and a gray box, as shown in FIG. 8. The gray box is a meddle portion in which an animal can choose between the white box and the black box, and the gray box is […]. The black box has a bottom composed of stainless steel rods having a diameter of 4.8 mm and a spacing of 16 mm, and the white box has a bottom composed of stainless steel meshes having a size of 1.25×1.25 cm. The gray box is 12 cm in width, 22 cm in length, and 21 cm in height, and the white box and the black box are 28 cm in width, 21 cm in length, and 21 cm in height.
A series of test procedures are as follows. 5-Week-old male Sprague-Dawley rats (SD rats) were purchased and acclimated for one week. Then, on days 1, 2 and 3 of the test (preconditioning step), in a state in which each rat was not treated with a drug or normal saline for injection, each rat was placed in the gray compartment, and then the door was opened and the time that each rat stayed in each compartment was measured for 15 minutes. Then, based on the mean of the measurement results, the compartment preferred by the rats in the preconditioning step (that is, the compartment in which the rats stayed longer, among the white compartment and the black compartment) was determined.
The next step is a conditioning step corresponding to day 4 to day 11. On days 4, 6, 8 and 10, the corresponding dose of each of the Test Example and the Comparative Examples was administered by intraperitoneal injection to each rat, and after 30 minutes, the rats were adapted to the non-preferred compartment for 30 minutes so as to allow the rats to remember the non-preferred compartment in association with tramadol. On the remaining days 5, 7, 9 and 11, normal saline for injection was administered by intraperitoneal injection to the rats, and after 30 minutes, the rats were adapted to the preferred compartment for 30 minutes so as to allow the rats to remember the preferred compartment in association with the saline solution. On day 12 corresponding to a final step (post-conditioning step), in a state in which neither the drug nor normal saline for injection was administered to the rats, the rats were placed in the gray compartment, and then the door was opened and the time that the rats stayed in each compartment was measured for 15 minutes (see Table 7).
The difference between the time that the rats stayed in the tramadol-associated place (non-preferred compartment) in the post-conditioning step and the time that the rats stayed in the non-preferred compartment in the pre-conditioning step indicates the tramadol-induced change in conditioned place preference, that is, psychological dependence on the drug.
Next, based on the test results, the standardized J-T statistic and the significance level (p-value) were confirmed using a Jonckheere-terpstra test which is a non-parametric statistical method.

[4] = tramadol 2.6 mg/kg intraperitoneal on days 4, 6, 8, 10
[5] = tramadol 3.9 mg/kg intraperitoneal on days 4, 6, 8, 10
[6] = tramadol 10.3 mg/kg intraperitoneal on days 4, 6, 8, 10

| Compound | solubility in water ([1]; 20° C.) [µg/mL] | in vivo half-life [2] | solubility in water [1] | Change (min) in the time stayed in non-preferred compartment [3, 4] [min] | Change (min) in the time stayed in preferred compartment [3, 4] [min] | Change (min) in the time stayed in non-preferred compartment [3, 5] [min] | Change (min) in the time stayed in preferred compartment [3, 5] [min] | Change (min) in the time stayed in non-preferred compartment [3, 6] [min] | Change (min) in the time stayed in preferred compartment [3, 6] [min] | psychological dependence on tramadol (FIG. 9) ([3]; tramadol 37.5 mg (Comparative Example 5) or 100 mg (Comparative Example 6) compared to Test Example 2 (tramadol 25 mg) and Comparative Example 4 (tramadol 0 mg)) | blood half-life ([2]; in vivo) |
| --- | --- | --- | --- | --- | --- | --- | --- | --- | --- | --- | --- |
| Cc1ccc(-c2cc(C(F)(F)F)nn2-c2ccc(S(N)(=O)=O)cc2)cc1 [Celecoxib] | 3.3 (≈ 8.65 µM) | about 11 hours | – | – | – | – | – | – | – | – | – |
| COc1cccc(C2(O)CCCCC2CN(C)C)c1 (centres unmarked) [tramadol] | – | – | very soluble in water | 1.3 | -0.17 | 2.8 | 2.20 | 3.3 | 3.03 | greatly increased | about 6 hours |
